Measured values from US20180209956A1, “HTS Assay for Identifying Small Molecule Inhibitors of RAD52 and Uses of Identified Small Molecule Inhibitors for Treatment and Prevention of BRCA-Deficient Malignancies” (University of Iowa Research Foundation, priority 2015, published 2018).
Structures can show the parent of a compound that is named as a salt. Where two headings read alike, the source gives them in different places.

Experiments:
RAD52-ssDNA interaction = biological target: T1, RAD52-ssDNA interaction (Homo sapiens, UniProt P43351); experiment: FRET-based ssDNA binding and wrapping assay (RAD52-Cy3-dT30-Cy5 complex); details: for IC50: read-out: IC50 (DNA binding); for IC50 range for ssDNA binding and wrapping, in words: summary of Table 1
T1 construct: made in house
T1 sequence (P43351 1-418): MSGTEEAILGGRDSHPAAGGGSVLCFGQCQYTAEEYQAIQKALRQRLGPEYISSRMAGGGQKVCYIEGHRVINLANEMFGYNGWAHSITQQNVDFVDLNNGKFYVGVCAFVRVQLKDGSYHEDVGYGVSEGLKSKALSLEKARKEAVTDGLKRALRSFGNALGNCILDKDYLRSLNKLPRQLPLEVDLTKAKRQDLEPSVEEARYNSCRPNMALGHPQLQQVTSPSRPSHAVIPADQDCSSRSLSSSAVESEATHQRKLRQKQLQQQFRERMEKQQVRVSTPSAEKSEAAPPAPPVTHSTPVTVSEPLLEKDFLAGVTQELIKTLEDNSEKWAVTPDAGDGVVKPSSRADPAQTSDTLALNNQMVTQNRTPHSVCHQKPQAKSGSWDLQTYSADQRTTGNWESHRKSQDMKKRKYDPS
Protocol: We titrated increasing amounts of each compound into a cuvette containing preformed stoichiometric RAD52-Cy3-dT30-Cy5 complexes (1 nM Cy3-dT30-Cy5 and 8 nM RAD52). […] At each concentration of the compound, the FRET signal was adjusted for the change in Cy3 and Cy5 fluorescence in the presence of the compound, but in the absence of protein.
FRET-based DNA binding and annealing assays: FRET-based ssDNA binding, dsDNA binding, and annealing assays were carried out as previously described (Grimme et al., 2010, Grimme and Spies, 2011) using Cary Eclipse spectrofluorimeter (Varian) at 25° C. in buffer containing 30 mM Tris-Acetate pH7.5, 1 mM DTT, and 0.1 mg/mL BSA. Cy3 dye was excited at 530 nm and its emission was monitored at 565 nm. Emission of Cy5 acceptor fluorophore excited through the energy transfer from Cy3 donor is monitored at 660 nm simultaneously with emission of Cy3 dye. Both the excitation and the emission slit widths were set to 10 nm.
All experiments were performed in triplicates, and the data are shown as averages and standard deviations for three independent measurements. To remove possible experimental artifacts associated with chromogenic or fluorogenic compounds, as well as with the compounds that may quench or enhance Cy3 or Cy5 fluorescence, we also performed control titrations whereby we titrated each compound into 1 nM Cy3-dT30-Cy5 in the absence of RAD52. For each compound concentration we subtracted the difference in the FRET signal in the presence and absence of the compound from the respective FRET signal in the presence of RAD52. The FRET signal corrected for the compound fluorescence was calculated using the equation: […]
as previously described (Grimme et al., 2010, Grimme and Spies, 2011) and plotted as a function of compound concentration and fitted to the following inhibition model”
where FRET0 is the initial FRET value of RAD52-ssDNA complex in the absence of the compound and FRETmin is the FRET value at complete inhibition. FRET values were calculated as an average of three or more independent annealing reactions plotted against the concentration of the compound. Inhibition of the RAD52-dsDNA interaction was assayed in a similar experiment, except the stoichiometric complexes containing 1 nM molecules of Cy3-Oligo28-Cy5 duplex DNA and 10 nM RAD52. […] In all experiments, the FRET values for each data point were corrected for the effects of the compounds on the respective substrate in the absence of RAD52.

[1] = biological target: T2, RAD52-mediated ssDNA annealing (Homo sapiens, UniProt P43351); experiment: FRET-based RAD52-mediated ssDNA annealing assay; format: biochemical; details: Table 1, read-out: IC50 Annealing Extent
T2 construct: made in house
T2 sequence (P43351 1-418): T1 sequence (P43351 1-418)
From the text: These assays utilize two complementary single stranded 28-nucleotide-long substrates, which contain either Cy3 (T-28) or Cy5 (P-28) incorporated into the middle of the respective DNA strand. When the substrates are annealed by RAD52, the Cy3 and Cy5 dyes are separated by 3 base pairs and yield a high FRET signal (FIG. 2 Supplement 2). […] The annealing reactions were initiated by mixing two half reactions and observing the change in FRET over time in the presence of varying concentrations of small molecules. An increasing FRET value over time indicates formation of the dsDNA duplex which brings the two dyes in close proximity (FIG. 2 Supplement 2). Fitting the annealing data to a double exponential allowed us to calculate and compare the final extent of annealing at varying concentrations of each compound compared to RAD52 alone. We plotted the final extent of annealing vs the concentration of the compound and calculated an IC50 of annealing inhibition.
Annealing of complementary oligonucleotides by RAD52 was monitored under identical conditions as the binding assays described above. For each assay, the reaction master mixture containing 8 nM RAD52 protein in the presence and absence of the compounds at varying concentrations was prepared at room temperature and divided into two half reactions. Following baseline buffer and protein measurements, 0.5 nM of T-28 ssDNA substrate was added to the reaction cuvette and the signal was allowed to stabilize. The annealing reaction was initiated upon addition of the second half-reaction pre-incubated with 0.5 nM P-28 ssDNA substrate. The fluorescence of Cy3 and Cy5 were measured simultaneously over the reaction time course (500 s). FRETapp values were calculated as an average of three or more independent annealing reactions plotted against time (s). The average FRET values were fitted to a double exponential to calculate the final extent of annealing using Graphpad Prism4 software. The calculated annealing extent was plotted as a function of compound concentration and fitted to the same model as we used to determine IC50 values for the inhibition of DNA annealing.

[2] = Solubility observed during testing; format: physicochemical
[3] = Table 1, ssDNA, 1 nM Cy3-dT30-Cy5, 8 nM RAD52
[4] = Table 2, methods similar to Example 1

| Molecule | IC50 (RAD52-ssDNA interaction; [3]) [nM] | IC50 range for ssDNA binding and wrapping, in words (RAD52-ssDNA interaction) | FRET value at saturation (RAD52-ssDNA interaction; Table 1) | FRET value at saturation (RAD52-ssDNA interaction; Table 2) | IC50 (RAD52-ssDNA interaction; [4]) [nM] | other results |
| --- | --- | --- | --- | --- | --- | --- |
| Asiatic Acid [Compound 18] | > 800000 | high micro-molar range | – | – | – | IC50 [1]: > 100000 nM |
| O=C(O[C@@H]1Cc2c(O)cc(O)cc2O[C@@H]1c1ccc(O)c(O)c1)c1cc(O)c(O)c(O)c1 [Compound 5, (−)-Epicatechin gallate] | 255 ± 16 | nano-molar range | 0.41 ± 0.004 | – | – | IC50 [1]: 20000 ± 700 nM |
| COc1cc(N)c(Cl)cc1C(=O)N[C@H]1CCN(CCCOc2ccc(F)cc2)C[C@H]1OC [Compound 16, Cisapride Monohydrate, reference compound] | – | – | 0.50 ± 0.01 | – | – | – |
| NCCc1cc(O)c(O)cc1O [Compound 14, Oxidopamine] | 779 ± 51 | nano-molar range | 0.50 ± 0.01 | – | – | – |
| CC1(C)C(=O)C=C[C@@]2(C)C1=C(O)C(=O)[C@]1(C)[C@@H]2CC[C@@]2(C)[C@H](c3ccoc3)C[C@H]3O[C@]321 [Compound 17, Cedrelone] | > 300000 | high micro-molar range | – | – | – | – |
| O=c1c2ccccc2nc(CSc2ncnc3[nH]cnc23)n1-c1cccc(C(F)(F)F)c1 [Compound R27, 2-[(9H-purin-6-ylthio)methyl]-3-[3-(trifluoromethyl)phenyl]-4(3H)-qhinazolinone] | – | – | – | – | – | Solubility ([2]; 30 mM Tris-Acetate pH 7.5, 1 mM DTT at 115 μM): Insoluble in 30 mM Tris-Acetate pH 7.5, 1 mM DTT at 115 μM |
| CCOc1ccccc1NC(=O)c1c(NC(=O)Cc2ccc(OC)cc2)sc2c1CCC2 [Compound R29, N-(2-ethoxyphenyl)-2-{[(4-methoxyphenyl)acetyl]amino)-5,6-dihydro-4H-cyclopenta[b]thiophene-3-carboxamide] | – | – | – | – | – | Solubility ([2]; DMSO at 25 mM): Compound is insoluble in DMSO at 25 mM |
| Cc1ccc2c(c1)C(=O)CC(O)(C(F)(F)F)O2 (centres unmarked) [Compound R20, 2-hydroxy-6-methyl-2-(trifluoromethyl)-2,3-dihydro-4H-chromen-4-one] | – | – | – | 0.49 ± 0.01 | 938 ± 12 | – |
| Rolitetracycline [Compound ‘4’, reference compound] | 29000 ± 8200 | mid micro-molar range | 0.56 ± 0.04 | – | – | – |
| CC1(C)COC(O)(C(F)(F)F)CC1=O (centres unmarked) [Compound R22, 2-hydroxy-5,5-dimethyl-2-(trifluoromethyl)tetrahydro-4H-pyran-one] | – | – | – | 0.49 ± 0.01 | 184000 ± 12000 | – |
| CCOc1cc(C(Nc2cc(C)ccn2)c2ccc3ccc(C)nc3c2O)ccc1OC (centres unmarked) [Compound R28, 7-{(3-ethoxy-4-methyoxyphenyl)[(4-methyl-2-pyridinyl)amino]methyl}-2-methyl-8-quinolinol] | – | – | – | – | – | Solubility ([2]; 30 mM Tris-Acetate pH 7.5, 1 mM DTT at 10 μM): Insoluble in 30 mM Tris-Acetate pH 7.5, 1 mM DTT at 10 μM |
| COc1cc(C2C(C(=O)OCC3CCCO3)=C(C)NC3=C2C(=O)CC(C)(C)C3)ccc1O (centres unmarked) [Compound R30, Tetrahydro-2-furanylmethyl 4-(4-hydroxy-3-methoxyphenyl)-2,7,7-trimethyl-5oxo-1,4,5,6,7,8-hexahydro-3-quinolinecarboxylate] | – | – | – | 0.59 ± 0.01 | 1300 ± 190 | – |
| O=C1c2ccc(O)c(O)c2C(=O)c2c(O)ccc(O)c21 [Compound 15, Quinalizarin] | 563 ± 40 | nano-molar range | 0.51 ± 0.01 | – | – | IC50 [1]: 5600 ± 600 nM |
| Oc1cc(O)c2c(c1)O[C@H](c1ccc(O)c(O)c1)[C@H](O)C2 [Compound 7, (−)-Epicatechin] | 1450 ± 110 | micro-molar range | 0.51 ± 0.01 | – | – | – |
| c1ccc(CSc2nnc3c(n2)OC(c2ccc4c(c2)OCO4)Nc2ccccc2-3)cc1 (centres unmarked) [Compound R25, 6-(1,3-benzodioxol-5-yl)-3-(benzylthio)-6,7-dihydro[1,2,4]triazino[5,6-d][3,1]benzoxazepine] | – | – | – | 0.45 ± 0.01 | 1600 ± 150 | – |
| CC(C)(O)C1Cc2cc3ccc(=O)oc3cc2O1 (centres unmarked) [Compound R24, 2-(1-hydroxy-1methylethyl)-2,3-dihydro-7H-furo[3,2-g]crhomen-7-one] | – | – | – | – | – | IC50 (DNA binding) (RAD52-ssDNA interaction; [4]): No inhibition |
| C=C1c2cccc(O)c2C(=O)C2=C(O)[C@]3(O)C(=O)C(C(N)=O)=C(O)[C@@H](N(C)C)[C@@H]3[C@@H](O)[C@H]12 [Compound 3, Methacycline Hydrochloride, reference compound] | 2000 ± 170 | micro-molar range | 0.47 ± 0.01 | – | – | IC50 [1]: 3800 ± 200 nM |
| O/N=C1/CC(O)(C(F)(F)F)Oc2ccccc21 (centres unmarked) [Compound R21, 2-hydroxy-2-(trifluoromethyl)-2,3-dihydro-4H-chromen-4-one oxime] | – | – | – | 0.483 ± 0.01 | 76000 ± 5570 | – |
| CC(O)CC1(O)C(=O)N(C)c2ccccc21 (centres unmarked) [Compound R23, 3-hydroxy-3-(2-hydroxypropyl)-1-methyl-1,3-dihydro-2H-indol-2-one] | – | – | – | 0.39 ± 0.01 | 84100 ± 1040 | – |
| O=c1c(O)c(-c2ccc(O)c(O)c2)oc2c(O)c(O)cc(O)c12 [Compound 19, Gossypetin] | 913 ± 58 | nano-molar range | 0.49 ± 0.01 | – | – | IC50 [1]: 6000 ± 2300 nM |
| CCOc1ccc(C2Nc3ccccc3-c3nnc(SCc4ccccc4)nc3O2)cc1 (centres unmarked) [Compound R26, 3-(benzylthio)-6-(4-ethoxyphenyl)-6,7-dihydro[1,24]triazino[5,6-d][3,1]benzoxazepine] | – | – | – | 0.46 ± 0.01 | 1900 ± 500 | – |
| COc1cc(/C=N/NC(=O)CCC(C)O)ccc1O (centres unmarked) [Compound R33, 4-hydroxy-N′-(4-hydroxy-3-methoxybenzyliden)pentanohydrazide] | – | – | – | 0.56 ± 0.01 | 849 ± 210 | – |
| COc1ccc(C(=O)Nc2ccccc2C(=O)NC(C(=O)Nc2ccccc2)C(C)C)cc1 (centres unmarked) [Compound R32, N-[1-(anilinocarbonyl)-2-methylpropyl]-2-[(4-methoxybenzoyl)amino]benzamide] | – | – | – | 0.45 ± 0.01 | 1250 ± 340 | – |
